In patent US11578061B2, “Inhibitors of LRRK2 kinase” (Halia Therapeutics, Inc., priority 2021, dated 2023) one finds IC50 data, which are given here for 31 molecules.

Structures are written as SMILES. Where only a bound is given, the exact number is not on record here.

As usually defined, the IC50 is the concentration that gives 50% inhibition.

In the assay the target is recombinant human LRRK2 (catalytic domain only [amino acids 970-2527], GST-tagged) (Homo sapiens (Human), UniProt Q5S007). Description: LRRK2 Enzymatic Assay. The settings on record: LRRKtide substrate, [32P]-ATP. The format is biochemical. Summed up: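 GST-tagged catalytic domain (aa 970-2527) at 30 nM with 20 μM LRRKtide in HEPES pH 7.5/MgCl2 buffer, 1% DMSO; compounds (10 μM to 0.5 nM) preincubated 20 min, then [32P]-ATP added for 2 h at room temperature. P81 phosphocellulose capture; activity as % of vehicle, IC50 by curve fit.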
recombinant human LRRK2 (catalytic domain only [amino acids 970-2527], GST-tagged), sequence (Q5S007 970-2527): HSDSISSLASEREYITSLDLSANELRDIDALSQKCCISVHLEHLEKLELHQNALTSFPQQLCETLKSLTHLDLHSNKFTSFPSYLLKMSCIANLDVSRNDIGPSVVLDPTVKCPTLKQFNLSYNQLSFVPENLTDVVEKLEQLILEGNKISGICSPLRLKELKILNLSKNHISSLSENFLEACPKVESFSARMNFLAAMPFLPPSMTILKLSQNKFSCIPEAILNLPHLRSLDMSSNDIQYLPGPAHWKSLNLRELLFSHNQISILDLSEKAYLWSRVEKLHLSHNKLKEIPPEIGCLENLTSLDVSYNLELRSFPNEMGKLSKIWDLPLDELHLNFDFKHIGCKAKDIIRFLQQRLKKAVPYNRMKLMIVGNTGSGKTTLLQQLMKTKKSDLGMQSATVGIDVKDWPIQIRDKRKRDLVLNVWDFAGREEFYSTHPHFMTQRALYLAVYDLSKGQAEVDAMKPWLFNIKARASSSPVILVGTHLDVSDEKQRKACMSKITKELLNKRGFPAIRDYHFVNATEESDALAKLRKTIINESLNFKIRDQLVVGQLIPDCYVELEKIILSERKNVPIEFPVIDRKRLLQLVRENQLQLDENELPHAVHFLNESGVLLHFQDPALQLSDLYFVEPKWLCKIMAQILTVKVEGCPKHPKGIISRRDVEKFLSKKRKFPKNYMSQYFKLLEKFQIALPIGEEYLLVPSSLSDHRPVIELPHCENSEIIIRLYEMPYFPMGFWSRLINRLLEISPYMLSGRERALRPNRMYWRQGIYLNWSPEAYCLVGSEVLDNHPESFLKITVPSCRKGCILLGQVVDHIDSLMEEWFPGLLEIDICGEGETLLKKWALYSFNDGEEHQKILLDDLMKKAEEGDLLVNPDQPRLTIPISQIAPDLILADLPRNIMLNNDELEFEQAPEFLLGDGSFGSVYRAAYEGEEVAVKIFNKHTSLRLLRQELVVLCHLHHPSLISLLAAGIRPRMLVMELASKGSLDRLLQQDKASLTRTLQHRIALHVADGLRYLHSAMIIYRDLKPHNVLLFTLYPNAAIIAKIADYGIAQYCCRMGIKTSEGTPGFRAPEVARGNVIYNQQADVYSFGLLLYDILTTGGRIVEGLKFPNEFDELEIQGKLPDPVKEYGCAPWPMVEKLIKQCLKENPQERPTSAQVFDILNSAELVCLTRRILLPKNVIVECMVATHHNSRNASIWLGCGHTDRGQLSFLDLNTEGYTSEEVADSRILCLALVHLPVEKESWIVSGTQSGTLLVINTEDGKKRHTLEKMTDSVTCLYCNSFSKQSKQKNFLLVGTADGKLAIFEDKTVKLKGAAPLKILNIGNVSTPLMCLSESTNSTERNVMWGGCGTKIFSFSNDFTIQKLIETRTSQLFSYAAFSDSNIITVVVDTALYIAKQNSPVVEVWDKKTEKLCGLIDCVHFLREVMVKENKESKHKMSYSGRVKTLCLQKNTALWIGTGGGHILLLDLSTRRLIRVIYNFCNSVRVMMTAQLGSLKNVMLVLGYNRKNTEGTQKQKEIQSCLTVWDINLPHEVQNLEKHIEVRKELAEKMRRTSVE
`OCCn1cc(Nc2ncc(F)c(OC[C@H]3CC[C@H](O)CC3)n2)cn1` [Example 225, (1R,4R)-4-(((5-fluoro-2-((1-(2-hydroxyethyl)-1H-pyrazol-4-yl)amino)pyrimidin-4-yl)oxy)methyl)cyclohexan-1-ol]: the IC50 is < 50 nM. With `COCCn1cc(Nc2ncc(F)c(OC[C@H]3CC[C@H](O)CC3)n2)cn1` [Example 226, (1R,4R)-4-(((5-fluoro-2-((1-(2-methoxyethyl)-1H-pyrazol-4-yl)amino)pyrimidin-4-yl)oxy)methyl)cyclohexan-1-ol], the concentration for half-maximal inhibition (IC50) was 50 to 200 nM. In the case of `O[C@H]1CC[C@H](COc2nc(Nc3cnn(C4COC4)c3)ncc2F)CC1` [Example 227, (1R,4R)-4-(((5-fluoro-2-((1-(oxetan-3-yl)-1H-pyrazol-4-yl)amino)pyrimidin-4-yl)oxy)methyl)cyclohexan-1-ol] it was 200 to 400 nM.

Take `O[C@H]1CC[C@H](COc2nc(Nc3cnn(C4CCOCC4)c3)ncc2F)CC1` [Example 228, (1R,4R)-4-(((5-fluoro-2-((1-(tetrahydro-2H-pyran-4-yl)-1H-pyrazol-4-yl)amino)pyrimidin-4-yl)oxy)methyl)cyclohexan-1-ol]: the IC50 fell in the range of 200 to 400 nM. The figure for `Cc1nn(C)cc1Nc1ncc(F)c(OC[C@H]2CC[C@H](O)CC2)n1` [Example 229, (1R,4R)-4-(((2-((1,3-dimethyl-1H-pyrazol-4-yl)amino)-5-fluoropyrimidin-4-yl)oxy)methyl)cyclohexan-1-ol] is 50 to 200 nM. In the case of `Cc1nn(C(C)C)cc1Nc1ncc(F)c(OC[C@H]2CC[C@H](O)CC2)n1` [Example 230, (1R,4R)-4-(((5-fluoro-2-((1-isopropyl-3-methyl-1H-pyrazol-4-yl)amino)pyrimidin-4-yl)oxy)methyl)cyclohexan-1-ol] it was 50 to 200 nM.

On to `Cc1nn(C2CC2)cc1Nc1ncc(F)c(OC[C@H]2CC[C@H](O)CC2)n1` [Example 231, (1R,4R)-4-(((2-((1-cyclopropyl-3-methyl-1H-pyrazol-4-yl)amino)-5-fluoropyrimidin-4-yl)oxy)methyl)cyclohexan-1-ol], for which the IC50 was in the range of 50 to 200 nM. In the case of `Cc1nn(C(F)F)cc1Nc1ncc(F)c(OC[C@H]2CC[C@H](O)CC2)n1` [Example 232, (1R,4R)-4-(((2-((1-(difluoromethyl)-3-methyl-1H-pyrazol-4-yl)amino)-5-fluoropyrimidin-4-yl)oxy)methyl)cyclohexan-1-ol] it was 50 to 200 nM. The figure for `CCc1nn(C)cc1Nc1ncc(F)c(OC[C@H]2CC[C@H](O)CC2)n1` [Example 233, (1R,4R)-4-(((2-((3-ethyl-1-methyl-1H-pyrazol-4-yl)amino)-5-fluoropyrimidin-4-yl)oxy)methyl)cyclohexan-1-ol] is < 50 nM; for `Cc1c(Nc2ncc(F)c(OC[C@H]3CC[C@H](O)CC3)n2)cnn1C(C)(C)C#N` [Example 234, 2-(4-((5-fluoro-4-(((1R,4R)-4-hydroxycyclohexyl)methoxy)pyrimidin-2-yl)amino)-5-methyl-1H-pyrazol-1-yl)-2-methylpropanenitrile] it is < 50 nM; for `Cc1c(Nc2ncc(F)c(OC[C@H]3CC[C@H](O)CC3)n2)cnn1C(F)F` [Example 235, (1R,4R)-4-(((2-((1-(difluoromethyl)-5-methyl-1H-pyrazol-4-yl)amino)-5-fluoropyrimidin-4-yl)oxy)methyl)cyclohexan-1-ol] it is 50 to 200 nM.

`O[C@H]1CC[C@H](COc2nc(Nc3cnn(C4CCOCC4)c3C3CC3)ncc2F)CC1` [Example 236, (1R,4R)-4-(((2-((5-cyclopropyl-1-(tetrahydro-2H-pyran-4-yl)-1H-pyrazol-4-yl)amino)-5-fluoropyrimidin-4-yl)oxy)methyl)cyclohexan-1-ol]: the IC50 is < 50 nM. As for `Cn1cc(Nc2ncc(F)c(OC[C@H]3CC[C@H](O)CC3)n2)c(Cl)n1` [Example 237, (1R,4R)-4-(((2-((3-chloro-1-methyl-1H-pyrazol-4-yl)amino)-5-fluoropyrimidin-4-yl)oxy)methyl)cyclohexan-1-ol], the IC50 fell in the range of 50 to 200 nM.

On to `CC(C)n1cc(Nc2ncc(F)c(OC[C@H]3CC[C@H](O)CC3)n2)c(Cl)n1` [Example 238, (1R,4R)-4-(((2-((3-chloro-1-isopropyl-1H-pyrazol-4-yl)amino)-5-fluoropyrimidin-4-yl)oxy)methyl)cyclohexan-1-ol], for which the IC50 fell in the range of 200 to 400 nM. In the case of `O[C@H]1CC[C@H](COc2nc(Nc3cn(C4CC4)nc3Cl)ncc2F)CC1` [Example 239, (1R,4R)-4-(((2-((3-chloro-1-cyclopropyl-1H-pyrazol-4-yl)amino)-5-fluoropyrimidin-4-yl)oxy)methyl)cyclohexan-1-ol], the IC50 lay in the range of 200 to 400 nM. In the case of `OCCn1ncc(Nc2ncc(F)c(OC[C@H]3CC[C@H](O)CC3)n2)c1Cl` [Example 240, (1R,4R)-4-(((2-((5-chloro-1-(2-hydroxyethyl)-1H-pyrazol-4-yl)amino)-5-fluoropyrimidin-4-yl)oxy)methyl)cyclohexan-1-ol] it was 50 to 200 nM; in that of `COCCn1ncc(Nc2ncc(F)c(OC[C@H]3CC[C@H](O)CC3)n2)c1Cl` [Example 241, (1R,4R)-4-(((2-((5-chloro-1-(2-methoxyethyl)-1H-pyrazol-4-yl)amino)-5-fluoropyrimidin-4-yl)oxy)methyl)cyclohexan-1-ol], 50 to 200 nM. Regarding `O[C@H]1CC[C@H](COc2nc(Nc3cnn(C4CCOCC4)c3Cl)ncc2F)CC1` [Example 242, (1R,4R)-4-(((2-((5-chloro-1-(tetrahydro-2H-pyran-4-yl)-1H-pyrazol-4-yl)amino)-5-fluoropyrimidin-4-yl)oxy)methyl)cyclohexan-1-ol], the IC50 was < 50 nM. The figure for `COc1nn(C)cc1Nc1ncc(F)c(OC[C@H]2CC[C@H](O)CC2)n1` [Example 243, (1R,4R)-4-(((5-fluoro-2-((3-methoxy-1-methyl-1H-pyrazol-4-yl)amino)pyrimidin-4-yl)oxy)methyl)cyclohexan-1-ol] is 200 to 400 nM; for `COc1nn(C(C)C)cc1Nc1ncc(F)c(OC[C@H]2CC[C@H](O)CC2)n1` [Example 244, (1R,4R)-4-(((5-fluoro-2-((1-isopropyl-3-methoxy-1H-pyrazol-4-yl)amino)pyrimidin-4-yl)oxy)methyl)cyclohexan-1-ol] it is > 400 nM. In the case of `COc1nn(C2CC2)cc1Nc1ncc(F)c(OC[C@H]2CC[C@H](O)CC2)n1` [Example 245, (1R,4R)-4-(((2-((1-cyclopropyl-3-methoxy-1H-pyrazol-4-yl)amino)-5-fluoropyrimidin-4-yl)oxy)methyl)cyclohexan-1-ol] it was 200 to 400 nM; in that of `O[C@H]1CC[C@H](COc2nc(Nc3ccc(N4CCOCC4)cc3)nc(Cl)c2F)CC1` [Example 246, (1R,4R)-4-(((6-chloro-5-fluoro-2-((4-morpholinophenyl)amino)pyrimidin-4-yl)oxy)methyl)cyclohexan-1-ol], > 400 nM.

For the molecule `C[C@@H]1CN(c2ccc(Nc3nc(Cl)c(F)c(OC[C@H]4CC[C@H](O)CC4)n3)cc2)C[C@H](C)O1` [Example 247, (1R,4R)-4-(((6-chloro-2-((4-((2S,6R)-2,6-dimethylmorpholino)phenyl)amino)-5-fluoropyrimidin-4-yl)oxy)methyl)cyclohexan-1-ol], the IC50 was > 400 nM.

Turning to `Cc1nn(C(C)(C)C#N)cc1Nc1nc(Cl)c(F)c(OC[C@H]2CC[C@H](O)CC2)n1` [Example 248, 2-(4-((4-chloro-5-fluoro-6-(((1R,4R)-4-hydroxycyclohexyl)methoxy)pyrimidin-2-yl)amino)-3-methyl-1H-pyrazol-1-yl)-2-methylpropanenitrile], the IC50 was > 400 nM. In the case of `C[C@@H]1CN(c2ccc(Nc3ncc(F)c(OC[C@@H]4CCC[C@@H](O)C4)n3)cc2)C[C@H](C)O1` [Example 249, (1R,3R)-3-(((2-((4-((2S,6R)-2,6-dimethylmorpholino)phenyl)amino)-5-fluoropyrimidin-4-yl)oxy)methyl)cyclohexan-1-ol], the IC50 is < 50 nM.

As for `Cc1nn(C(C)(C)C#N)cc1Nc1ncc(F)c(OC[C@@H]2CCC[C@@H](O)C2)n1` [Example 250, 2-(4-((5-fluoro-4-(((1R,3R)-3-hydroxycyclohexyl)methoxy)pyrimidin-2-yl)amino)-3-methyl-1H-pyrazol-1-yl)-2-methylpropanenitrile], the half-maximal inhibitory concentration (IC50) is < 50 nM.

For `CC1(O)CCC(COc2nc(Nc3ccc(N4CCOCC4)cc3)ncc2F)CC1` (stereo not shown) [Example 251, 4-(((5-fluoro-2-((4-morpholinophenyl)amino)pyrimidin-4-yl)oxy)methyl)-1-methylcyclohexan-1-ol], the IC50 is 50 to 200 nM. The figure for `C[C@@H]1CN(c2ccc(Nc3ncc(F)c(OCC4CCC(C)(O)CC4)n3)cc2)C[C@H](C)O1` (stereo partly drawn) [Example 252, 4-(((2-((4-((2S,6R)-2,6-dimethylmorpholino)phenyl)amino)-5-fluoropyrimidin-4-yl)oxy)methyl)-1-methylcyclohexan-1-ol] is < 50 nM.

Regarding `Cc1nn(C(C)(C)C#N)cc1Nc1ncc(F)c(OCC2CCC(C)(O)CC2)n1` (stereo not shown) [Example 253, 2-(4-((5-fluoro-4-((4-hydroxy-4-methylcyclohexyl)methoxy)pyrimidin-2-yl)amino)-3-methyl-1H-pyrazol-1-yl)-2-methylpropanenitrile], the IC50 was < 50 nM.

As to `CC(C)(O)[C@H]1CC[C@H](COc2nc(Nc3ccc(N4C5CCC4COC5)cc3)ncc2F)CC1` [Example 254, 2-((1S,4S)-4-(((2-((4-(3-oxa-8-azabicyclo[3.2.1]octan-8-yl)phenyl)amino)-5-fluoropyrimidin-4-yl)oxy)methyl)cyclohexyl)propan-2-ol], the IC50 is 50 to 200 nM. The figure for `CC(C)n1cc(Nc2ncc(F)c(OC[C@H]3CC[C@H](C(C)(C)O)CC3)n2)cn1` [Example 255, 2-((1R,4R)-4-(((5-fluoro-2-((1-isopropyl-1H-pyrazol-4-yl)amino)pyrimidin-4-yl)oxy)methyl)cyclohexyl)propan-2-ol] is 50 to 200 nM.
